What was measured:
[1] = test system: fluorescent blood vessels; settings: transgenic fluorescent embryos (Parng et al., 2002); cited from earlier work
cultured neurons = cultured neurons / neuronal cells (Raulo et al., 1994; Kinnunen et al., 1996; Rauvala et al., 1997); cited from earlier work
[2] = test system: NGF-induced neurite outgrowth; settings: Feng et al., 2004; cited from earlier work
PC12D cells = PC12D cells (Li et al., 2004); cited from earlier work
[3] = test system: HBNF-induced neurite outgrowth; assay: modified in vivo neurite outgrowth assay in zebrafish embryos, inhibition by injected heparin; settings: heparin injected into zebrafish embryo at two- or four-cell stage; data not shown
Description: As mentioned above, we modified the in vivo neurite outgrowth assay in zebrafish embryos to investigate the inhibitory effect of heparin or heparan sulfate on HBNF-induced neurite outgrowth by further injection of different dosage of heparin or heparan sulfate into zebrafish embryo at two- or four-cell stage. […] Therefore, the modified assay system also can be used to compare the inhibitory or enhancing effect of HBNF/PTN-induced neurite outgrowth in vivo by heparin and its modified forms, N-syndecan-derived saccharides, and other glycosaminoglycans.

[4] = test system: GFP-labeled neurons in zebrafish embryos; assay: in vivo neurite outgrowth promotion assay, expression construct coinjected with pHuC-GFP into zebrafish embryos; set-up: species or system Zebrafish (Danio rerio); settings: expression construct coinjected with pHuC-GFP at one-cell stage; observed at 48 or 72 hpf
Description: The expression construct pcDNA-HBNF-HA and pHuC-GFP (panels 2, 5-7) were coinjected into zebrafish embryos at 1-cell stage. Similar injection of pHuC-GFP alone (panel 1) was used as control. Zebrafish embryos at 72 h postfertilization with GFP fluorescence were selected for image analysis. Embryos are shown as lateral view with anterior to the left. Experiments were repeated at least three times and at least 100 fertilized eggs were used for injection of expression constructs at each time. Four representative patterns with significant enhancement of neurite outgrowth (panels 2, 5-7) were shown. Images of bright field and fluorescence were merged and shown in panels 1, 2, and 5-7, while fluorescence images only in panels 3, 4, 8-10. Higher magnification of two regions marked with yellow boxes in panel 2 was shown in panel 3 and 4, respectively. N, notochord; DF, dorsal fin; VF, ventral fin. Scale bars represent 100 μm.
The expression construct pcDNA-NGF-HA and pHuC-GFP were coinjected into zebrafish embryos at 1-cell stage. Similar injection of pHuC-GFP alone was used as control. Zebrafish embryos at 72 hpf with GFP fluorescence were selected for image analysis. Embryos are shown as lateral view with anterior to the left. Images of bright field and fluorescence were merged and shown in panel 1, while fluorescence images only in panel 2. Higher magnification of the head region and tail region with significant neurite outgrowth in panel 2 was shown in panels 3 and 4, respectively.
The expression construct pGFAP-GDNF-HA and pHuC-GFP were coinjected into zebrafish embryos at 1-cell stage. Similar injection of pHuC-GFP alone was used as control. Zebrafish embryos at 48 hpf with GFP fluorescence were selected for image analysis. […] Images of bright field and fluorescence were merged and shown in panel 1, while fluorescence images only in panel 2. […]
Zebrafish (Danio rerio) were maintained at 28° C. on a 14 h-light/10 h-dark cycle. Embryos were incubated at 28° C. and different developmental stages were determined according to the description in Zebrafish Book (Westerfield, 1995). […]

PC12 cells = assay: neurite outgrowth in PC12 cells transfected with pcDNA-HBNF-HA; format: cell-based, rat; settings: transfected HBNF cDNA under CMV promoter, without NGF stimulation, 72 h posttransfection
[5] = test system: neuro2A neuroblastoma cells; settings: Hiwasa et al., 1997; cited from earlier work
[6] = infused directly in putamen (Gill et al., 2003); cited from earlier work

## Cc1[nH]c(/C=C2\C(=O)Nc3ccccc32)c(C)c1CCC(=O)O [SU-6668]
[1]
  inhibition of angiogenesis: inhibit angiogenesis

## low molecular weight heparin
Cultured neurons
  inhibition of HBNF/PTN-induced neurite outgrowth: more potent inhibition

## COC(=O)[C@]1(O)C[C@H]2O[C@]1(C)n1c3ccc(O)cc3c3c4c(c5c6ccccc6n2c5c31)C(=O)NC4=O [Indocarbazostatin C, Indocarbazostatins C]
[2]
  inhibition of NGF-induced neurite outgrowth: inhibitors of NGF-induced neurite outgrowth

## CC(=O)O[C@@H]1[C@@H](O)[C@H](C)O[C@@H](OC[C@H]2O[C@@H](Oc3cc(O)c4c(=O)cc(-c5ccc(O)cc5)oc4c3)[C@H](O)[C@@H](O)[C@@H]2O)[C@@H]1OC(C)=O [Compound 3, apigenin 7-O-alpha-L-2,3-di-O-acetylrhamnopyranosyl-(1→6)-beta-D-glucopyranoside]
PC12D cells
  enhancing activity of nerve growth factor-mediated neurite outgrowth: enhancing activity

## heparin
[3]
  inhibitory effect on HBNF-induced neurite outgrowth: inhibit HBNF-induced neurite outgrowth

## COC(=O)[C@]1(O)C[C@H]2O[C@]1(C)n1c3ccc(O)c(N)c3c3c4c(c5c6ccccc6n2c5c31)C(=O)NC4=O [Indocarbazostatin D]
[2]
  inhibition of NGF-induced neurite outgrowth: inhibitors of NGF-induced neurite outgrowth

## CC(=O)O[C@@H]1[C@@H](O)[C@H](C)O[C@@H](OC[C@H]2O[C@@H](Oc3cc(O)c4c(=O)cc(-c5ccc(O)cc5)oc4c3)[C@H](O)[C@@H](O)[C@@H]2O)[C@@H]1O [Compound 2, apigenin 7-O-alpha-L-3-O-acetylrhamnopyranosyl-(1→6)-beta-D-glucopyranoside]
PC12D cells
  enhancing activity of nerve growth factor-mediated neurite outgrowth: enhancing activity

B1: zebrafish GDNF: zebrafish glial-derived neurotrophic factor expressed in glia cells from pGFAP-GDNF-HA (protein, UniProt Q98TU0 90-235, looked up)
Glial cell line-derived …: SSDVEPQMKRDRVRQKAAANTEKSGGRGRGERKRSRGRARSRDDRVKGQGRGCLLKEIHLNVTDLDLGYRTKEELIFRYCSGPCHDAETNYDKILNNLTHNKKLDKDTPSRTCCRPIAFDDDISFLDDSLEYHTLKKHSAKKCACV
modifications: HA tag
notes: zebrafish glial-derived neurotrophic factor expressed in glia cells from pGFAP-GDNF-HA
[4]
  enhancement of neurite outgrowth in zebrafish embryos: induce extensive neurite outgrowth

B2: zebrafish HBNF: zebrafish heparin-binding neurotrophic factor (SEQ ID NO: 1) expressed from pcDNA-HBNF-HA (protein)
chain: MQQQWVCVALLALLTVTATLADGGKTEKQGKKERKSDCGEWQWSVCVANEGDCGLGIREGTRSGNDCKQTIKTQRCKIPCNWKKQFGGECKYDFQAWGECDSTTGMKTRTGVLKRALMDANCPNTVSATKPCGKPKTKMQDSQKPKRDGKKKERNPTD
modifications: HA tag; Danio rerio
[4]
  enhancement of neurite outgrowth in zebrafish embryos: enhance extensive neurite outgrowth
PC12 cells
  neurite outgrowth in PC12 cells: induce significant neurite outgrowth

B3: recombinant GDNF: recombinant glial-derived neurotrophic factor (Hiwasa et al., 1997) (protein, UniProt P39905 78-211, looked up)
Glial cell line-derived …: SPDKQMAVLPRRERNRQAAAANPENSRGKGRRGQRGKNRGCVLTAIHLNVTDLGLGYETKEELIFRYCSGSCDAAETTYDKILKNLSRNRRLVSDKVGQACCRPIAFDDDLSFLDDNLVYHILRKHSAKRCGCI
[5]
  neurite outgrowth of neuro2A neuroblastoma cells: induce neurite outgrowth

B4: GDNF: glial-derived neurotrophic factor infused directly in putamen in a clinical trial (protein, UniProt P39905 78-211, looked up)
Glial cell line-derived …: B3 Glial cell line-derived …
[6]
  side-effects: does not have significant side-effects
  treatment effect in Parkinson disease: effective treatment for Parkinson disease

B5: zebrafish NGF: zebrafish nerve growth factor expressed from pCMV-NGF-HA (protein, UniProt Q6YBR5 77-194, looked up)
Nerve growth factor: KAGPPQHRGVYSVCESISHWEGNKTKATDITGNEVTVLPDVIINNSKKKQYFFETTCSSGRTGGSGCLGIDARHWNSYCTNSHTFVRALTSFKNLVAWRLIRINVACVCVLSRKSWRA
modifications: HA tag
notes: zebrafish nerve growth factor expressed from pCMV-NGF-HA
[4]
  enhancement of neurite outgrowth in zebrafish embryos: induce extensive neurite outgrowth
